In brackets after ≈: the same amount, converted by molar mass. Values belong to the compound of their own block, whether it stands above or below them.
How the values were obtained:
[1] = Solubility test according to surfactant; assay type: physicochemical; conditions: for solubility according to surfactants (in words): in PEG 6 glyceryl caprylate/caprate and PEG 8 caprylic/capric glyceride; for solubility at 24 h: organic solvent or mixture, thermodynamic from solid
[2] = Solubility test in various oils; assay type: physicochemical; conditions: for solubility at 24 h: oil or lipid, thermodynamic from solid; for solubility at 24 h / Solubility of Tadalafil: room temperature, 24 hours of stirring
Protocol: Dutasteride and tadalafil were measured for solubility in various oils comprising soybean oil, castor oil, polyoxyl 6 apricot kernel oil, propyleneglycol monolaurate, propyleneglycol monocaprylate, glyceryl caprylate/caprate. In a 10-mL vial, 3 mL of an oil was stirred at room temperature with a magnetic bar during which about 100 mg of the main ingredient was added, followed by stirring at 500 rpm or higher. After 24 hours of stirring, centrifugation was carried out and the supernatant thus formed was taken and subjected to liquid chromatography to quantitate the main ingredient dissolved in the oil phase.

solubility according to surfactants (in words) [1]: high solubility | solubility at 24 h ([1]; in PEG 6 glyceryl carpylate/caprate, read-out: Dutasteride Solubility): 3550 µg/mL (≈ 6.72 mM) | solubility at 24 h ([1]; in PEG 8 caprylic/capric glyceride, read-out: Dutasteride Solubility): 3860 µg/mL (≈ 7.3 mM) | solubility at 24 h ([1]; in PEG 35 castor oil, read-out: Dutasteride Solubility): 1990 µg/mL (≈ 3.77 mM) | solubility at 24 h ([1]; in Poloxamer 124, read-out: Dutasteride Solubility): 1120 µg/mL (≈ 2.12 mM) | solubility at 24 h ([1]; in Polysorbate 60, read-out: Dutasteride Solubility): 1770 µg/mL (≈ 3.35 mM) | solubility at 24 h ([1]; in Polysorbate 80, read-out: Dutasteride Solubility): 1360 µg/mL (≈ 2.57 mM) | solubility at 24 h ([2]; in Castor oil, read-out: Solubility of Dutasteride): 1500 µg/mL (≈ 2.84 mM) | solubility at 24 h ([2]; in Glyceryl caprylate/caprate, read-out: Solubility of Dutasteride): 14300 µg/mL (≈ 27.1 mM) | solubility at 24 h ([2]; in Polyoxyl 6 apricot kernel oil, read-out: Solubility of Dutasteride): 2550 µg/mL (≈ 4.82 mM) | solubility at 24 h ([2]; in Propylene glycol monocaprylate, read-out: Solubility of Dutasteride): 26300 µg/mL (≈ 49.7 mM)
SMILES: C[C@]12C=CC(=O)N[C@@H]1CC[C@@H]1[C@@H]2CC[C@]2(C)[C@@H](C(=O)Nc3cc(C(F)(F)F)ccc3C(F)(F)F)CC[C@@H]12 [Dutasteride, 17β-N-(2,5-bis(trifluoromethyl))phenylcarbomoyl-4-aza-5α-androst-1-en-3-one]

solubility according to surfactants (in words) [1]: high solubility | solubility at 24 h ([1]; in PEG 6 glyceryl carpylate/caprate, read-out: Tadalafil Solubility): 9130 µg/mL (≈ 23.4 mM) | solubility at 24 h ([1]; in PEG 8 caprylic/capric glyceride, read-out: Tadalafil Solubility): 8810 µg/mL (≈ 22.6 mM) | solubility at 24 h ([1]; in PEG 35 castor oil, read-out: Tadalafil Solubility): 8100 µg/mL (≈ 20.8 mM) | solubility at 24 h ([1]; in Poloxamer 124, read-out: Tadalafil Solubility): 6230 µg/mL (≈ 16 mM) | solubility at 24 h ([1]; in Polysorbate 60, read-out: Tadalafil Solubility): 10700 µg/mL (≈ 27.6 mM) | solubility at 24 h ([1]; in Polysorbate 80, read-out: Tadalafil Solubility): 9650 µg/mL (≈ 24.8 mM) | Solubility of Tadalafil ([2]; in Glyceryl caprylate/caprate): 4130 µg/mL | Solubility of Tadalafil ([2]; in Polyoxyl 6 apricot kernel oil): 1120 µg/mL | fold greater solubility than the other oils ([2]; in glyceryl caprylate/caprate and propylene glycol monocaprylate versus castor oil, soybean oil, polyoxyl 6 apricot kernel oil): ≥ 4 fold | solubility at 24 h ([2]; in Propylene glycol monocaprylate, read-out: Solubility of Tadalafil): 4610 µg/mL (≈ 11.8 mM)
SMILES: CN1CC(=O)N2[C@H](c3ccc4c(c3)OCO4)c3[nH]c4ccccc4c3C[C@@H]2C1=O [Tadalafil, 6R-trans-6-(1,3-benzodioxol-5-yl)-2,3,6,7,12,12a-hexahydro-2-methyl-pyrazino [1′,2′:1,6]pyrido[3,4-b]indole-1,4-dione]

Reference: US20190224195A1, “Oral Capsule Composite Formulation of Dutasteride and Tadalafil” (Yuyu Pharma, Inc., priority 2016, published 2019)
